{
  "source": "ChEMBL document CHEMBL1201862",
  "about": "“PubChem BioAssay data set” (2004)",
  "key": {"[1]": {"assay": "NIH-3T3 fibroblast cytotoxicity, dose response, cytotoxicity control, cell-based, fluorescence, Alamar Blue, secondary assay (AID 2327);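 further: NIH-3T3 mouse fibroblasts cultured with fluconazole at 8 µg/mL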", "type": "functional"}, "[2]": {"assay": "microbe, parasite or virus in culture", "type": "functional", "details": "Mycobacterium tuberculosis"}, "[3]": {"test_system": "Streptococcus sp. 'group A'", "assay": "growth inhibition of control SK(-) GAS strain, dose response, counter-screen for streptokinase expression inhibitor project, luminescence, kanamycin, BacTiterGlo, confirmation (AID 1900)", "type": "functional, organism-based"}, "Streptokinase A": {"molecular_target": "T1, Streptokinase A (Streptococcus pyogenes serotype M1, UniProt P10520)", "T1 sequence (P10520 whole entry)": "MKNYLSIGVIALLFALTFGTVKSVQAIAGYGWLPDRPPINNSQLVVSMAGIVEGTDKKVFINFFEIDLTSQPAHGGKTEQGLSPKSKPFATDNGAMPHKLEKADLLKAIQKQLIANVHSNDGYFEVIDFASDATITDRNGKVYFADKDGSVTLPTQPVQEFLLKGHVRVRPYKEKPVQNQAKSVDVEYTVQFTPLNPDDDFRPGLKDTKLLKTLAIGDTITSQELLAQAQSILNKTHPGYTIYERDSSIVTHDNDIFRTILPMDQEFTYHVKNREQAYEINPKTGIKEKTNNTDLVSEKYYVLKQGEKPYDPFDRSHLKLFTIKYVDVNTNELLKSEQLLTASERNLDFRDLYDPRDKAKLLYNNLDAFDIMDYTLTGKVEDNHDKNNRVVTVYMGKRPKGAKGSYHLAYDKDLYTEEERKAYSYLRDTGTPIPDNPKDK", "assay": "S. pyogenes streptokinase expression inhibitors, potency, dose response, plasminogen activation absorbance, OD405 (AID 1914);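 further: secreted streptokinase activity via plasminogen activation per viability signal from cell pellet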", "type": "functional, Streptococcus pyogenes M1 GAS"}, "[4]": {"assay": "inhibitors of intracellular T. cruzi replication, confirmation, NIH3T3 host cells, beta-gal luminescence (AID 2044);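 further: luminescent beta-galactosidase reporter signal from transgenic T. cruzi replicating inside host cells; inhibitors lower the luminescence signal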", "type": "functional, cell-based"}, "[5]": {"assay": "cytotoxicity toward NIH3T3 fibroblasts, dose response, counter-screen, cell-based, ATP luminescence, mouse fibroblasts (AID 2010);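 further: cells exposed to compound for about 90 hours before reading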", "type": "functional"}, "Streptococcus": {"test_system": "Streptococcus", "assay": "Group A Streptococcus viability loss, dose response, counter-screen for streptokinase expression inhibitor project, luminescence, BacTiterGlo (AID 1915);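 further: potency for reduction of bacterial viability or growth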", "type": "functional, organism-based"}, "Fatty acid synthase [6]": {"molecular_target": "T2, Fatty acid synthase (Homo sapiens, UniProt P49327)", "T2 sequence (P49327 whole entry, the tested form may be a part)": "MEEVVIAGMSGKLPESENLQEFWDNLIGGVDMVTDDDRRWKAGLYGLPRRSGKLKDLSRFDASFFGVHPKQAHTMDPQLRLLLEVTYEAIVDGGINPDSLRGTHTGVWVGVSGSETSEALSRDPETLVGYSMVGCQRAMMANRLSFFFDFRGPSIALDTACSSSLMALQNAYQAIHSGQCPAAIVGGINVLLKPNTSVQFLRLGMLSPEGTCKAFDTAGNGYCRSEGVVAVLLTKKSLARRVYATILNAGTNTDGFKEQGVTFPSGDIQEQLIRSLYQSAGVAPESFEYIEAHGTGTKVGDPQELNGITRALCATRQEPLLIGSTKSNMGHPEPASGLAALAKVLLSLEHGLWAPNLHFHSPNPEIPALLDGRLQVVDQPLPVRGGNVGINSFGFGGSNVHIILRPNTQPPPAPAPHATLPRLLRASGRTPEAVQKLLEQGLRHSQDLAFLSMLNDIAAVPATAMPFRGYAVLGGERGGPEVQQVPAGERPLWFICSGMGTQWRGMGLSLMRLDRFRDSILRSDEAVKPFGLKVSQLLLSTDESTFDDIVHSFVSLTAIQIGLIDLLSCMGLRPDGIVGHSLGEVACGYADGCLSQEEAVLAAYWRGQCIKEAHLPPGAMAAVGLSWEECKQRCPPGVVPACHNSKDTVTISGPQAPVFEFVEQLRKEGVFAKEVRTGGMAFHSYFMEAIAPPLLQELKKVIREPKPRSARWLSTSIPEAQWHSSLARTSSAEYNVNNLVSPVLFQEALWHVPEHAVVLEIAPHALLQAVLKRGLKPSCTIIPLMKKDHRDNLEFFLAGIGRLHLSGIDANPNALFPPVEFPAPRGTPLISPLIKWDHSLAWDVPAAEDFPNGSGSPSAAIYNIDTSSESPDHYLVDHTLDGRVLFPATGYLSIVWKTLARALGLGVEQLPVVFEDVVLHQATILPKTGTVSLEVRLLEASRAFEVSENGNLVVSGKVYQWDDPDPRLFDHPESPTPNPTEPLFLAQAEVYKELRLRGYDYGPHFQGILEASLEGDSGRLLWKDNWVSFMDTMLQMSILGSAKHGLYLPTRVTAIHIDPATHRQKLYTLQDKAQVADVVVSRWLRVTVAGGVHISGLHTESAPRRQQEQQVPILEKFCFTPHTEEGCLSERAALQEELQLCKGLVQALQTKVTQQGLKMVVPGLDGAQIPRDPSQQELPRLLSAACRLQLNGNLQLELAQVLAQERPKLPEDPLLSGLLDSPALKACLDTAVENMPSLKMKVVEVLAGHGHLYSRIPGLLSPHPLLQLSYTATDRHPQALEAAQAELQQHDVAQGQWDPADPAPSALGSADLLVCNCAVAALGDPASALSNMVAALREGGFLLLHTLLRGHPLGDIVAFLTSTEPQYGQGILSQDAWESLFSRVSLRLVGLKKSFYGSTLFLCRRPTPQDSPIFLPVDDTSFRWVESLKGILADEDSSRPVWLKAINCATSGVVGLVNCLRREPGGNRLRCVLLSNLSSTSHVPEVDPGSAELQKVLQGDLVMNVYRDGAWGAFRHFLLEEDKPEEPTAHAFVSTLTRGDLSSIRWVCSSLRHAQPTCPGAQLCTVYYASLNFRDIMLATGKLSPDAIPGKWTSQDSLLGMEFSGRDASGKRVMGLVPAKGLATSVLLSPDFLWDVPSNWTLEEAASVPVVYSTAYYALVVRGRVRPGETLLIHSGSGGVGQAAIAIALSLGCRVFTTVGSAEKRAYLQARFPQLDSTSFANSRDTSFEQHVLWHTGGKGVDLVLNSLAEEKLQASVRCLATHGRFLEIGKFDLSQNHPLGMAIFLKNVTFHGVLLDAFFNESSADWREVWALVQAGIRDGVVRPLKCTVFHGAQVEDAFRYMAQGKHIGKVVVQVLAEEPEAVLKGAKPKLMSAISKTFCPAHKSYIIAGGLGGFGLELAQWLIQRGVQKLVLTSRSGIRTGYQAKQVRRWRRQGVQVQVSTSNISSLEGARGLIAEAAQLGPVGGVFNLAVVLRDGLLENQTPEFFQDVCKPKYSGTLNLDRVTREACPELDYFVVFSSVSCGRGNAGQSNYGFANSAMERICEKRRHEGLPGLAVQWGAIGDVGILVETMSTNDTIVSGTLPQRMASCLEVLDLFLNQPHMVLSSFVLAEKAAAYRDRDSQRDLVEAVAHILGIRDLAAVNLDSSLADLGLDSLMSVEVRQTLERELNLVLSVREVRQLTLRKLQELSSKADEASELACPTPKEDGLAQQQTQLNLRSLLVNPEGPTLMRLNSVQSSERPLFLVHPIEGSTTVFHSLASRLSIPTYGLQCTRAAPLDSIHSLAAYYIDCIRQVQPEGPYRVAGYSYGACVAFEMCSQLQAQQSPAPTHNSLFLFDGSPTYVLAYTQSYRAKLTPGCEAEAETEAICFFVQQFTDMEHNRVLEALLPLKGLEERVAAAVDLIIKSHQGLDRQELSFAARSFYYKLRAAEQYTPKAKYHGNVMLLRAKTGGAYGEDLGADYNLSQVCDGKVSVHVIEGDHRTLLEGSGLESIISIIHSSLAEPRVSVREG", "assay": "FAS thioesterase domain inhibitors, dose response, biochemical, endpoint fluorescence intensity, uHTS hits (AID 624327);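 further: fluorescence from hydrolysis of an O-methyl fluorescein acyl ester substrate by the enzyme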", "type": "functional"}, "Fatty acid synthase [7]": {"molecular_target": "T2, Fatty acid synthase", "assay": "FAS thioesterase domain inhibitors, dose response, biochemical, kinetic fluorescence intensity (AID 624326);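 further: rate of fluorescence rise from hydrolysis of a fluorogenic O-methyl fluorescein ester substrate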", "type": "functional"}, "[8]": {"assay": "Luminescence Cell-Based Dose Confirmation HTS to Identify Activators of 5'UTR Stem-Loop Driven Alpha-Synuclein mRNA Translation in H4 Neuroglioblastoma Cells. [Related pubchem assays: 1829 (Project Summary), 1814 (Primary HTS)]", "type": "functional"}, "[9]": {"assay": "Luminescence Cell-Based Dose Response HTS to Identify Activators of Luciferase Translation or Activity in H4 […] Cells. [Related pubchem assays: 1829 (Project Summary), 1814 (Primary HTS)]", "type": "functional"}, "H4": {"test_system": "H4", "assay": "Luminescence Cell-Based Dose Response HTS to Identify Activators of 5'UTR Stem-Loop Driven Prion Protein mRNA Translation in H4 Neuroglioblastoma Cells. [Related pubchem assays: 1829 (Project Summary), 1814 (Primary HTS)]", "type": "functional", "details": "Homo sapiens"}, "[10]": {"molecular_target": "Luciferin 4-monooxygenase (Photinus pyralis, UniProt P08659)", "sequence (P08659 whole entry)": "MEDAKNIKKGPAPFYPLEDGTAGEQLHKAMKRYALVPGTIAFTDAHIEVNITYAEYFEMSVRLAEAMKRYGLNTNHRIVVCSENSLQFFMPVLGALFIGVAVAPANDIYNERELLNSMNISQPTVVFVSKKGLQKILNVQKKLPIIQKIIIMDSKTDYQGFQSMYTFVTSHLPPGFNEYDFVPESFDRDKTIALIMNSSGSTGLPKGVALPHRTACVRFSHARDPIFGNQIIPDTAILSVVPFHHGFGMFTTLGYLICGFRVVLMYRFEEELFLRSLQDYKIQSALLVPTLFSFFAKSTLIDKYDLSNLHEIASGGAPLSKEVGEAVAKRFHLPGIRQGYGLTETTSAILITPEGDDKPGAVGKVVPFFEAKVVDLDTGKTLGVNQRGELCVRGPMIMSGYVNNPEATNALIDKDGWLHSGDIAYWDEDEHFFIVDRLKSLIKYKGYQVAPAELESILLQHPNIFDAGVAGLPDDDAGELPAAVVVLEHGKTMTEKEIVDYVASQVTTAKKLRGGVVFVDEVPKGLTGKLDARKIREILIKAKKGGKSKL", "assay": "firefly luciferase enzyme inhibitors, dose response, biochemical, luminescence (AID 1891)"}, "[11]": {"assay": "Luminescence Cell-Based Dose Confirmation HTS to Identify Inhibitors of Platelet Dense Granule Release. [Related pubchem assays: 1663 (Primary HTS), 1678 (Summary of Project)]", "type": "functional"}, "[12]": {"assay": "growth suppression of PTEN-null colon cells, dose response, cell-based, HCT116 PTEN knockout (AID 1047);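 further: cells exposed to compound for 60 hours before readout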", "type": "functional"}, "[13]": {"assay": "growth suppression of beta-catenin-knockout colon cells, dose response, cell-based, HCT116, human colon tumor (AID 1045);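 further: cells exposed to compound for 60 hours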", "type": "functional"}, "[14]": {"molecular_target": "T3, Replicative DNA helicase DnaB (Mycobacterium tuberculosis, UniProt P9WMR3)", "T3 sequence (P9WMR3 whole entry)": "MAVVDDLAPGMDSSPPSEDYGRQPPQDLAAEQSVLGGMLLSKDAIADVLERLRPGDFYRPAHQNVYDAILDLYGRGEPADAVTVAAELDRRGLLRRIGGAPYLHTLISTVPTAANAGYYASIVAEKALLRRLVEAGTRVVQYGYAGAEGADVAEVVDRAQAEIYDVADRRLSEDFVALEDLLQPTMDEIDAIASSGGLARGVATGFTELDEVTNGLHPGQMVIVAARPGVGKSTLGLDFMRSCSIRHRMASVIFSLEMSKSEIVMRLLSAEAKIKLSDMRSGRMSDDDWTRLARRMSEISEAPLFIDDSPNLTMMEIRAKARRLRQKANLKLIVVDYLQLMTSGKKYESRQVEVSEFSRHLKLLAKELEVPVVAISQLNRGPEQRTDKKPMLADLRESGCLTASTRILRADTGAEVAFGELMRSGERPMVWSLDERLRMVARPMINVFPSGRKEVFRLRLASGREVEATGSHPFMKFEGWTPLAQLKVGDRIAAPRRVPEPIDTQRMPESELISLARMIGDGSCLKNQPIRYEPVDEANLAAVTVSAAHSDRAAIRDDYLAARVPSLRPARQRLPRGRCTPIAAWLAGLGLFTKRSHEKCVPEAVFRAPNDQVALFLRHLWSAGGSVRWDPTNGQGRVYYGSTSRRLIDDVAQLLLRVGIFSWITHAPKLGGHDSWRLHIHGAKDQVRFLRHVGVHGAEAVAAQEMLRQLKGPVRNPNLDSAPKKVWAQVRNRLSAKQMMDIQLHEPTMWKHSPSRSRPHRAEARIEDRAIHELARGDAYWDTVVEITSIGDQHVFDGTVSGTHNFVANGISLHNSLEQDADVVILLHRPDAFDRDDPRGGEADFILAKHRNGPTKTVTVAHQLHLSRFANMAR", "assay": "DnaB intein splicing inhibitors, dose response, biochemical, cell-free fluorescence (AID 449749)", "type": "functional"}, "Protein RecA": {"molecular_target": "T4, Protein RecA (Mycobacterium tuberculosis, UniProt P9WHJ3)", "T4 sequence (P9WHJ3 whole entry)": "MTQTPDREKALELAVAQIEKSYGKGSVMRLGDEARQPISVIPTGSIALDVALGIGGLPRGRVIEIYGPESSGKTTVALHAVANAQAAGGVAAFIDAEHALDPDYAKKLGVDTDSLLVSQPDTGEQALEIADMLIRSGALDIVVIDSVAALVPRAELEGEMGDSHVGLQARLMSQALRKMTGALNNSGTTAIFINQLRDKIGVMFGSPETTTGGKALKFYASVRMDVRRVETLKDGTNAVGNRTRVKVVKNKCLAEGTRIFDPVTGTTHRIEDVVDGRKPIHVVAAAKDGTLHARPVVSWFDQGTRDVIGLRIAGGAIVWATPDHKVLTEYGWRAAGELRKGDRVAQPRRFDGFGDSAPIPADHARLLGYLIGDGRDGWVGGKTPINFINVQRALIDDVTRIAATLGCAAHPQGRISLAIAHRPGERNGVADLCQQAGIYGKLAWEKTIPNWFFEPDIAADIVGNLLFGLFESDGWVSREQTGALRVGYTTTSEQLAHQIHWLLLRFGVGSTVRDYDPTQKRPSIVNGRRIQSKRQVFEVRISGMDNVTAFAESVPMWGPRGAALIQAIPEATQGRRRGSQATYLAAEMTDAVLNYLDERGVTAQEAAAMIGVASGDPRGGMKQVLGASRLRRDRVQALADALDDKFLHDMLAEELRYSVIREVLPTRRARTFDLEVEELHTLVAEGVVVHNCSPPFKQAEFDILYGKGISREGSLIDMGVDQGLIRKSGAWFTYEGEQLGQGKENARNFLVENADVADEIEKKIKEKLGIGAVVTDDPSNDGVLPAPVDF", "assay": "Fluorescence Cell-Free Homogeneous Dose Retest to Identify Inhibitors of RecA-Intein Splicing Activity. [Related pubchem assays (depositor defined):AID2097, AID2223, AID489010, AID492950]", "type": "functional"}, "Cytochrome P450 2C19": {"molecular_target": "Cytochrome P450 2C19 (Homo sapiens, UniProt P33261)", "sequence (P33261 whole entry)": "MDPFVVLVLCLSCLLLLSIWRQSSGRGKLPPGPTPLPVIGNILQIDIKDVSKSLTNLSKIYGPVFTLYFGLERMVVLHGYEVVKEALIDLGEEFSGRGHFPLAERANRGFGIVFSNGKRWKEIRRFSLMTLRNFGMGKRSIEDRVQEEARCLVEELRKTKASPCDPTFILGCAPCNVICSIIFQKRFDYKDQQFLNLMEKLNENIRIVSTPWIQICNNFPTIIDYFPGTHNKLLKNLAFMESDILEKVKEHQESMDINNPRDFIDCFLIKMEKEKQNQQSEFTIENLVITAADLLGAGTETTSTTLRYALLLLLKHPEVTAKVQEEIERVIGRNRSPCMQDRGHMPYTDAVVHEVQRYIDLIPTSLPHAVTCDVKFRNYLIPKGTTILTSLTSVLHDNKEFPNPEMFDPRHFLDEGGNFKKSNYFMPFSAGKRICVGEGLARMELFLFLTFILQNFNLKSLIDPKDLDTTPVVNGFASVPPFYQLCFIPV", "assay": "Cytochrome panel assay with activity outcomes. Panel member name: p450-cyp2c19 Compounds with AC50 equal or less than 10 uM are considered active", "type": "functional", "details": "read-out: AC50"}, "Cytochrome P450 3A4": {"molecular_target": "Cytochrome P450 3A4 (Homo sapiens, UniProt P08684)", "sequence (P08684 whole entry)": "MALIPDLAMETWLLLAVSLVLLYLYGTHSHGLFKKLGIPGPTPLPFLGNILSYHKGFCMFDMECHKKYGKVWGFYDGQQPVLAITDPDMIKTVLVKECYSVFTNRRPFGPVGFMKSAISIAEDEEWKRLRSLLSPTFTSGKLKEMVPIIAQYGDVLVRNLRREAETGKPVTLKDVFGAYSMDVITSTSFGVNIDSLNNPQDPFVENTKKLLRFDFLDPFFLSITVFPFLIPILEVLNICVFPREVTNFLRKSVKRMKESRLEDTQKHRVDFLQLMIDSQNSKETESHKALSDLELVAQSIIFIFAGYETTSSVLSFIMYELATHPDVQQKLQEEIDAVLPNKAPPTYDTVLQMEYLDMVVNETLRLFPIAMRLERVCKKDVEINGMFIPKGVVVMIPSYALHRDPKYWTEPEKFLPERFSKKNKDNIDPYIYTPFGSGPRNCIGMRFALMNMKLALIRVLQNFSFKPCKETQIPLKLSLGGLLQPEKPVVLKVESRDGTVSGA"}, "Cytochrome P450 2C9": {"molecular_target": "Cytochrome P450 2C9 (Homo sapiens, UniProt P11712)", "sequence (P11712 whole entry)": "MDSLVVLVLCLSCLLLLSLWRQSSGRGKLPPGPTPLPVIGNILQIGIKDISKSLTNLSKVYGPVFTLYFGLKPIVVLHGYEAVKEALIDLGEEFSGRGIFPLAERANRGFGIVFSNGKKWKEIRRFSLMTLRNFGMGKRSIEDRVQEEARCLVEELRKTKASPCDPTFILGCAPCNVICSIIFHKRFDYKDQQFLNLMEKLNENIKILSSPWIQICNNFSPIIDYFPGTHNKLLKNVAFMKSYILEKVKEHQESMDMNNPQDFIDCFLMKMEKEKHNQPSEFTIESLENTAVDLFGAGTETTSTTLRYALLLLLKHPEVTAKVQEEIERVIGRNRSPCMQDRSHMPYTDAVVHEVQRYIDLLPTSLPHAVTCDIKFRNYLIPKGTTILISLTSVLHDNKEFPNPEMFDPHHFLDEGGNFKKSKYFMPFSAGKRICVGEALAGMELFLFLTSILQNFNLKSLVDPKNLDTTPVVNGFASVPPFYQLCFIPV"}},
  "note": "The source made the active and inactive calls.",
  "data": [
    {"smiles": "CCS(=O)(=O)c1ccc(-c2cccc(NC(=O)COc3ccc(Cl)cc3)c2)nn1", "values": [
      {"measurement": "EC50", "setting": "[1]", "result": "> 150 µM (inactive)"}
    ]},
    {"smiles": "Clc1ccc(CNc2nc(CN3CCOCC3)nc3scc(-c4ccccc4)c23)cc1", "values": [
      {"measurement": "CC50", "setting": "[2]", "result": "> 40 µM (active)"}
    ]},
    {"smiles": "Cc1cccc(NC(=O)c2[nH]cnc2C(=O)N[C@@H](CCCCNC(=O)OC(C)(C)C)C(=O)OC(C)(C)C)c1", "values": [
      {"measurement": "EC50", "setting": "[3]", "result": "3.46 µM (active)"},
      {"measurement": "EC50", "setting": "Streptokinase A", "result": "> 150 µM (not active)"},
      {"measurement": "EC50", "setting": "[4]", "result": "2.44 µM (active)"},
      {"measurement": "EC50", "setting": "[5]", "result": "> 60 µM (not active)"},
      {"measurement": "EC50", "setting": "Streptococcus", "result": "8.6 µM (active)"},
      {"measurement": "IC50", "setting": "Fatty acid synthase [6]", "result": "1.12 µM (active)"},
      {"measurement": "IC50", "setting": "Fatty acid synthase [7]", "result": "0.658 µM (active)"}
    ]},
    {"smiles": "Cc1ccc2[nH]c(/C(C#N)=C/c3c[nH]nc3-c3ccc(F)cc3)nc2c1", "values": [
      {"measurement": "EC50", "setting": "[8]", "result": "> 120 µM (not active)"},
      {"measurement": "EC50", "setting": "[9]", "result": "5.96 µM (active)"},
      {"measurement": "EC50", "setting": "H4", "result": "> 120 µM (not active)"},
      {"measurement": "EC50", "setting": "[10]", "result": "> 112 µM (not active)"},
      {"measurement": "EC50", "setting": "[11]", "result": "46.2 µM (active)"},
      {"measurement": "CC50", "setting": "[2]", "result": "26.9 µM (active)"},
      {"measurement": "EC50", "setting": "[12]", "result": "7.74 µM (active)"},
      {"measurement": "EC50", "setting": "[13]", "result": "9.64 µM (active)"}
    ]},
    {"smiles": "CC(C)(C)c1csc(NC(=O)c2c(F)c(F)c(F)c(F)c2F)n1", "values": [
      {"measurement": "CC50", "setting": "[2]", "result": "34 µM (active)"},
      {"measurement": "AC50", "setting": "[14]", "result": "26 µM (active)"},
      {"measurement": "EC50", "setting": "Protein RecA", "result": "18.4 µM (active)"}
    ]},
    {"smiles": "COc1ccc(N2COC3c4cccc5cccc(c45)C32)cc1", "note": "(stereo not given)", "values": [
      {"measurement": "CC50", "setting": "[2]", "result": "> 40 µM (active)"}
    ]},
    {"smiles": "Cc1ccc(OC(=O)c2oc3ccc(F)cc3c2C)c(C)c1", "values": [
      {"measurement": "CC50", "setting": "[2]", "result": "3.94 µM (active)"},
      {"measurement": "AC50", "setting": "Cytochrome P450 2C19", "result": "11.2 µM (inconclusive)"},
      {"measurement": "AC50", "setting": "Cytochrome P450 3A4", "result": "39.8 µM (inconclusive)"},
      {"measurement": "AC50", "setting": "Cytochrome P450 2C9", "result": "10 µM (inconclusive)"}
    ]}
  ]
}
